Reference: US4452813A, “Sulfonate derivatives, process for preparing same and antilipemic compositions containing the derivative” (Taiho Pharmaceutical Company Limited, priority 1981, dated 1984)
pIC50: −log10 of the molar value.

Legend:
[1] = molecular target: Chymotripsin (Bos taurus, UniProt P00766); experiment: Chymotripsin inhibiting activity (hydrolysis of ATEE); type: biochemical; settings: 0.5 h; 1 × 10^-4 mol; 20 min preincubation, ATEE 30 min, 37° C., pH 8.0
Protocol: 2. Chymotripsin Inhibiting Activity
Chymotripsin (0.1 unit) serving as an enzyme solution is added to a specified quantity of buffer solution (pH 8.0) containing 0.1 mole of trishydrochloric acid. To the mixture is further added a 50% ethanol solution of the compound of the invention. The mixture is reacted at 37° C. for 20 minutes.
On completion of the reaction, 10 micromoles of […] (ATEE) serving as a substrate is added to the mixture, and the resulting mixture is reacted at 37° C. for 30 minutes.
After the completion of the reaction, the amount of remaining ATEE is determined by the same hydroxamic acid method as above. The percent chymotripsin inhibition is given by [formula] wherein A is the amount of hydrolzed esters in the reaction system not containing the compound of the invention, and B is the amount of hydrolyzed esters in the reaction system containing the present compound.

[2] = tested on: triglycerides content in the plasma; experiment: Antilipemic effect: inhibition of olive oil-induced hyperlipidemia, plasma triglycerides; type: in vivo, male Wister rats; settings: Rattus norvegicus, 100 mg compound in 5 ml olive oil, 5 ml/kg oral, 2 hours, read-out: Antilipemic effect IGI (%) (percent hyperlipidemia inhibition, triglycerides)
Protocol: Seven-week-old male Wister rats weighing 200 to 220 g are used, 5 rats in each group.
The compound of the invention (100 mg) is dissolved in 5 ml of olive oil. The olive oil containing the compound is orally given to the rat with a probe at a dose of 5 ml/kg. Two hours thereafter, 6 ml of whole blood is withdrawn from the descending aorta of the rat under ether anesthesia with a syringe containing heparin. The blood is centrifuged at 5° C. and 3000 r.p.m. to obtain the plasma. The plasma collected is used for determining the triglycerides content, using a triglycerides measuring kit (trade mark "Triglycerides-B Test Wako," product of Wako Junyaku Co., Ltd., Japan). Olive oil containing no compound is similarly given to a control group, while no treatment is conducted for a normal group. The triglycerides content in the plasma is also determined for these groups in the same manner as is the case with the test groups.
The percent hyperlipidemia inhibition achieved by the present compound is given by [formula] in which A is the triglycerides content of the control group, B is the triglycerides content of the normal group, and C is the triglycerides content of the group to which the present compound is given.

[3] = Acute toxicity, oral, one week; settings: rat, in vivo, 5% gum arabic suspension
Description: Six-week-old male Wister rats weighing 180 to 200 g are used, 5 rats in each group. The present compound is suspended in a 5% aqueous solution of gum arabic, and the suspension is orally given to the rats. For one week after the start of the test, the rats are checked evey day for general toxicity symptoms, body weight and death to determine the LD50 value.

[4] = molecular target: esterase (purified microsome fraction of the liver of a rat); experiment: Esterase inhibiting activity (hydrolysis of methyl butyrate); type: biochemical; settings: methyl butyrate substrate, pH 8.0, 37° C., 60 minutes
Protocol: 1. Esterase Inhibiting Activity
A 10 micromole quantity of methyl butyrate in a 50% ethanol solution is added as a substrate to a specified amount of buffer solution (pH 8.0) containing 0.1 mole of trishydrochloric acid. To the mixture is further added a 50% ethanol solution of the compound of the invention, immediately followed by addition of an esterase solution prepared from a purified microsome fraction of the liver of a rat (adjusted to hydrolyze 9 micromoles of methyl butyrate at 37° C. in one hour). The mixture is reacted at 37° C. for 60 minutes.
After the reaction, alkaline hydroxylamine is added to the mixture to form a hydroxamic acid derivative of methyl butyrate, and a ferric salt is added to the derivative. The resulting red color is colorimetrically determined (at a wavelength of 540 nm) to determine the amount of remaining methyl butyrate. The esterase inhibiting ratios of the present compound at least at three concentrations are plotted as ordinate, and the logarithms of the concentrations as abscissa to obtain a line, which gives the 50% inhibition concentration (IC50).

| SMILES | inhibition at 100 µM [1] [%] | inhibition in vivo at 100 mg/kg [2] [%] | LD50 at 168 h [3] [mg/kg] | pIC50 [4] |
| --- | --- | --- | --- | --- |
| CC(C)C[C@H]1CC[C@H](C(=O)COS(=O)(=O)c2ccccc2)CC1 [Compound 31] | 43 | 79 | > 3000 | 5.80 |
| Cc1cc(C)c(S(=O)(=O)OCC(=O)CC(C)C2CCCCC2)c(C)c1 (stereo not shown) [Compound 12] | 24 | 39 | > 3000 | 6.00 |
| CCOc1ccc(S(=O)(=O)OCC(=O)CC2CCCCC2C)cc1 (stereo not shown) [Compound 19] | 57 | 74 | > 3000 | 5.27 |
| CC(CC(=O)COS(=O)(=O)c1ccccc1)C1CCCCC1 (stereo not shown) [Compound 8] | 31 | 73 | > 3000 | 6.10 |
| CC1CCCCC1CC(=O)COS(=O)(=O)c1ccccc1 (stereo not shown) [Compound 17, 1-benzenesulfonyloxy-3-(2-methylcyclohexyl)-2-propanone] | 97 | 72 | > 2000 | 7.49 |
| CC(CC1CCCCC1)C(=O)COS(=O)(=O)c1ccccc1 (stereo not shown) [Compound 1, 1-benzenesulfonyloxy-4-cyclohexyl-3-methyl-2-butanone] | 100 | 60 | > 2000 | 6.46 |
| CC(C)C[C@H]1CC[C@@H](C(=O)COS(=O)(=O)c2ccccc2)CC1 [Compound 30] | 30 | 57 | > 3000 | 5.40 |
| CCC(CC1CCCCC1)C(=O)COS(=O)(=O)c1ccccc1 (stereo not shown) [Compound 5, 1-benzenesulfonyloxy-4-cyclohexyl-3-ethyl-2-butanone] | 12 | 80 | > 2000 | 5.33 |
| CC(C)(C)[C@H]1CC[C@H](C(=O)COS(=O)(=O)c2ccccc2)CC1 [Compound 35] |  | 72 | > 3000 | 5.34 |
| CCOc1ccc(S(=O)(=O)OCC(=O)[C@H]2CC[C@H](C(C)C)CC2)cc1 [Compound 27] | 35 | 76 | > 3000 | 5.70 |
| CCC(C(=O)COS(=O)(=O)c1ccc(C)cc1)C1CCC(C)CC1 (stereo not shown) [Compound 13] | 50 |  | > 2000 | 4.70 |
| Cc1cc(C)c(S(=O)(=O)OCC(=O)[C@H]2CC[C@@H](C(C)C)CC2)c(C)c1 [Compound 28] |  |  | > 3000 | 5.92 |
| CCC(C)[C@H]1CC[C@H](C(=O)COS(=O)(=O)c2ccccc2)CC1 (stereo partly shown) [Compound 33] | 19 | 76 | > 3000 | 6.77 |
| Cc1ccc(S(=O)(=O)OCC(=O)C(C)CC2CCCCC2)cc1 (stereo not shown) [Compound 2] | 90 | 50 | > 2000 | 5.11 |
| COc1ccc(S(=O)(=O)OCC(=O)CC(C)C2CCCCC2)cc1 (stereo not shown) [Compound 10, 4-cyclohexyl-1-(4-methoxybenzenesulfonyloxy)2-pentanone] | 22 | 46 | > 3000 | 5.46 |
| CCOc1ccc(S(=O)(=O)OCC(=O)CC2CCC(C)CC2)cc1 (stereo not shown) [Compound 16] | 81 | 11 | > 3000 | 5.30 |
| CCOc1ccc(S(=O)(=O)OCC(=O)C(C)CC2CCCCC2)cc1 (stereo not shown) [Compound 4] | 78 | 52 | > 3000 | 4.64 |
| COc1ccc(S(=O)(=O)OCC(=O)C(C)CC2CCCCC2)cc1 (stereo not shown) [Compound 3] | 93 | 63 | > 3000 | 5.40 |
| Cc1ccc(S(=O)(=O)OCC(=O)CC2CCC(C)CC2)cc1 (stereo not shown) [Compound 15, 1-(4-methylcyclohexyl)-3-(p-toluenesulfonyloxy)-2-propanone] | 94 | 85 | > 2000 | 5.85 |
| CCOc1ccc(S(=O)(=O)OCC(=O)C(CC)C2CCC(C)CC2)cc1 (stereo not shown) [Compound 14] | 40 | 81 | > 3000 | 4.40 |
| CCOc1ccc(S(=O)(=O)OCC(=O)CC(C)C2CCCCC2)cc1 (stereo not shown) [Compound 11] | 19 | 60 | > 3000 | 5.14 |
| CC(C)(C)[C@H]1CC[C@@H](C(=O)COS(=O)(=O)c2ccccc2)CC1 [Compound 34] |  | 52 | > 3000 | 5.34 |
| CCC(CC1CCCCC1)C(=O)COS(=O)(=O)c1ccc(OC)cc1 (stereo not shown) [Compound 6] |  | 52 | > 3000 |  |
| CCOc1ccc(S(=O)(=O)OCC(=O)C(CC)CC2CCCCC2)cc1 (stereo not shown) [Compound 7] | 13 | 71 | > 3000 | 3.70 |
| CCOc1ccc(S(=O)(=O)OCC(=O)C2CCC(CC)CC2)cc1 (stereo not shown) [Compound 23] | 24 | 67 | > 3000 | 5.85 |
| CC(C)[C@H]1CC[C@H](C(=O)COS(=O)(=O)c2ccccc2)CC1 [Compound 25, trans-2-(benzene-sulfonyloxy)-1-(4-isopropylcyclohexyl)-1-ethanone] | 62 | 90 | > 3000 | 7.19 |
| CC(C)[C@H]1CC[C@@H](C(=O)COS(=O)(=O)c2ccccc2)CC1 [Compound 24] | 16 | 60 | > 3000 | 6.15 |
| Cc1ccc(S(=O)(=O)OCC(=O)CC2CCCCC2C)cc1 (stereo not shown) [Compound 18] | 72 |  | > 2000 | 5.08 |
| Cc1cc(C)c(S(=O)(=O)OCC(=O)[C@H]2CC[C@H](C(C)C)CC2)c(C)c1 [Compound 29] |  |  | > 3000 | 6.89 |
